# Like-named read-outs stand apart in the source and are kept apart here.
# Legend:
# [1] = molecular target: T1, FL-SMARCA2 (full-length human SMARCA2 isoform 1) (Homo sapiens, UniProt P51531); experiment: SMARCA2 ATPase activity assay (ADP-Glo, chicken mononucleosome substrate); format: biochemical; details: ATP 250 uM
# T1 construct: FLAG tag (YKDDDDK) (C); made in house; host or cells: Sf21 insect cells (baculovirus, pFastBacI)
# Text: Molecular Biology: Full-length human SMARCA2 isoform 1 (P51531) transcript clone was amplified from a cDNA library incorporating an N-terminal HIS tag ([…]) fused directly to Ser2 of SMARCA2 and a C-FLAG tag (YKDDDDK) fused directly to Glu1590 of SMARCA2. The amplified gene was subcloned into pFastBacI (Life Technologies).
# Protein Expression: Recombinant baculovirus were generated and protein over-expression was accomplished by infecting exponentially growing Sf21 insect cell culture at 1.24×10^6 cell/ml with an MOI of 0.1. Infections were carried out for 76 hours, harvested by centrifugation, and stored at −80° C. for purification.
# Expressed full-length SMARCA2 was purified from cell paste by FLAG affinity chromatography followed by anion exchange chromatography. The protein was dialyzed into a storage buffer containing 25 mM HEPES, 300 mM KCl, 10% Glycerol, pH 7.9, 1 mM TCEP and 0.01% Tween-20. The purity of the protein was measured as 74% using micro-capillary based gel electrophoresis.
# FL-SMARCA4 = FL-SMARCA4 (Homo sapiens, UniProt P51532); experiment: SMARCA4 ATPase activity assay (ADP-Glo, chicken mononucleosome substrate)
# FL-SMARCA4, sequence (P51532 whole entry): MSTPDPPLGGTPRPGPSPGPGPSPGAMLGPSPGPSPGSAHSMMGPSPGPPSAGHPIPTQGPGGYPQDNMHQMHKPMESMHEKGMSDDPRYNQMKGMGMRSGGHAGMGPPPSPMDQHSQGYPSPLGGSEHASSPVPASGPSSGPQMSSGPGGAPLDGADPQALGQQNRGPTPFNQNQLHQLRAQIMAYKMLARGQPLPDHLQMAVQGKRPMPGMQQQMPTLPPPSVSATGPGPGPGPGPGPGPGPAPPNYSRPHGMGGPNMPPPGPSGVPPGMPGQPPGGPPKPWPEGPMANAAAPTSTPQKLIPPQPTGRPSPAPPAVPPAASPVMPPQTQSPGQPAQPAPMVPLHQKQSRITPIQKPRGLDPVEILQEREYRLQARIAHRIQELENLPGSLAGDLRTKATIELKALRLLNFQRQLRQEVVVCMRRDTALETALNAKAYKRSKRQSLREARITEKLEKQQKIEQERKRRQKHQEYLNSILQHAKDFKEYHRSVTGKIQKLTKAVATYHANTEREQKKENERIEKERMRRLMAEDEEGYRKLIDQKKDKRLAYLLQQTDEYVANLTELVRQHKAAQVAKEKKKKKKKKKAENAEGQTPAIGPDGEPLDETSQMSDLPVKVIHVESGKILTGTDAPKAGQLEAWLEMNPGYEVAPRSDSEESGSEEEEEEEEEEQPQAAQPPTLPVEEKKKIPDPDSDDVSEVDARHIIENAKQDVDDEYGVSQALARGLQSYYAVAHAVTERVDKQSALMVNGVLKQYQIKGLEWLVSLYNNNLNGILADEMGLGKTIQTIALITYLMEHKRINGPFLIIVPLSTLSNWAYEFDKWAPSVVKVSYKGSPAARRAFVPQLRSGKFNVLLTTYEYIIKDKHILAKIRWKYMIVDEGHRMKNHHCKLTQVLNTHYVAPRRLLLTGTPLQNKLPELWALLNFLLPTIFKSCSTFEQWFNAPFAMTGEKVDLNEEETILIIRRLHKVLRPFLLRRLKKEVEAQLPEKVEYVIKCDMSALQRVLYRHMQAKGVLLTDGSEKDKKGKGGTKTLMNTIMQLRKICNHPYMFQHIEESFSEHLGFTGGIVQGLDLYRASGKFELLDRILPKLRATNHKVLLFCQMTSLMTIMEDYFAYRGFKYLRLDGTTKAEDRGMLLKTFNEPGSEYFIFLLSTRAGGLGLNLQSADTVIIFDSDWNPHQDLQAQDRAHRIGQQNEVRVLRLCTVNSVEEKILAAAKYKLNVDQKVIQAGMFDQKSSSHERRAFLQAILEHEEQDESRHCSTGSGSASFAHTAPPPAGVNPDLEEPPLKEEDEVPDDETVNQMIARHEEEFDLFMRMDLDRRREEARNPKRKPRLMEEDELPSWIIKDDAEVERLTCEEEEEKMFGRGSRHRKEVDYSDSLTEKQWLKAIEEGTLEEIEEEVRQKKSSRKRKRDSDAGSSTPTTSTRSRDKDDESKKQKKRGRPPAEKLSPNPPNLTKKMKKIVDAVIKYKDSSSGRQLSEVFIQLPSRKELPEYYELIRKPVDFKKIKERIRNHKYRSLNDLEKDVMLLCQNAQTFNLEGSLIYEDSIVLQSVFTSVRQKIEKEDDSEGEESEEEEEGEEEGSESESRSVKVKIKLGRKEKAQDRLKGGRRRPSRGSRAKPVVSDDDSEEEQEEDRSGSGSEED
# [2] = Table 3d.1, ATPase assay, enzyme 5 nM, chicken mononucleosome 10 nM, 30 min preincubation, read-out: FL-SMARCA2 IC>50
# [3] = Table 3.1, ATPase assay, enzyme 5 nM, chicken mononucleosome 10 nM, 30 min preincubation
# [4] = FL-SMARCA4 IC50, Table 3.2, ATPase assay, enzyme 5 nM, ATP 250 uM, chicken mononucleosome 10 nM, 30 min preincubation
# [5] = Table 3b.1, SMARCA2 5 nM, mononucleosome 10 nM
# [6] = FL-SMARCA4 IC50, Table 3b.2, SMARCA4 5 nM, ATP 250 uM, mononucleosome 10 nM
# [7] = Table 3a.1, SMARCA2 5 nM, mononucleosome 10 nM
# [8] = FL-SMARCA4 IC50, Table 3a.2, SMARCA4 5 nM, ATP 250 uM, mononucleosome 10 nM
# [9] = Table 3c.1, ATPase assay, enzyme 5 nM, chicken mononucleosome 10 nM, 30 min preincubation
# [10] = FL-SMARCA4 IC>50, Table 3c.2, ATPase assay, enzyme 5 nM, ATP 250 uM, chicken mononucleosome 10 nM, 30 min preincubation
# T1 sequence (P51531 with tags, fused parts or gaps): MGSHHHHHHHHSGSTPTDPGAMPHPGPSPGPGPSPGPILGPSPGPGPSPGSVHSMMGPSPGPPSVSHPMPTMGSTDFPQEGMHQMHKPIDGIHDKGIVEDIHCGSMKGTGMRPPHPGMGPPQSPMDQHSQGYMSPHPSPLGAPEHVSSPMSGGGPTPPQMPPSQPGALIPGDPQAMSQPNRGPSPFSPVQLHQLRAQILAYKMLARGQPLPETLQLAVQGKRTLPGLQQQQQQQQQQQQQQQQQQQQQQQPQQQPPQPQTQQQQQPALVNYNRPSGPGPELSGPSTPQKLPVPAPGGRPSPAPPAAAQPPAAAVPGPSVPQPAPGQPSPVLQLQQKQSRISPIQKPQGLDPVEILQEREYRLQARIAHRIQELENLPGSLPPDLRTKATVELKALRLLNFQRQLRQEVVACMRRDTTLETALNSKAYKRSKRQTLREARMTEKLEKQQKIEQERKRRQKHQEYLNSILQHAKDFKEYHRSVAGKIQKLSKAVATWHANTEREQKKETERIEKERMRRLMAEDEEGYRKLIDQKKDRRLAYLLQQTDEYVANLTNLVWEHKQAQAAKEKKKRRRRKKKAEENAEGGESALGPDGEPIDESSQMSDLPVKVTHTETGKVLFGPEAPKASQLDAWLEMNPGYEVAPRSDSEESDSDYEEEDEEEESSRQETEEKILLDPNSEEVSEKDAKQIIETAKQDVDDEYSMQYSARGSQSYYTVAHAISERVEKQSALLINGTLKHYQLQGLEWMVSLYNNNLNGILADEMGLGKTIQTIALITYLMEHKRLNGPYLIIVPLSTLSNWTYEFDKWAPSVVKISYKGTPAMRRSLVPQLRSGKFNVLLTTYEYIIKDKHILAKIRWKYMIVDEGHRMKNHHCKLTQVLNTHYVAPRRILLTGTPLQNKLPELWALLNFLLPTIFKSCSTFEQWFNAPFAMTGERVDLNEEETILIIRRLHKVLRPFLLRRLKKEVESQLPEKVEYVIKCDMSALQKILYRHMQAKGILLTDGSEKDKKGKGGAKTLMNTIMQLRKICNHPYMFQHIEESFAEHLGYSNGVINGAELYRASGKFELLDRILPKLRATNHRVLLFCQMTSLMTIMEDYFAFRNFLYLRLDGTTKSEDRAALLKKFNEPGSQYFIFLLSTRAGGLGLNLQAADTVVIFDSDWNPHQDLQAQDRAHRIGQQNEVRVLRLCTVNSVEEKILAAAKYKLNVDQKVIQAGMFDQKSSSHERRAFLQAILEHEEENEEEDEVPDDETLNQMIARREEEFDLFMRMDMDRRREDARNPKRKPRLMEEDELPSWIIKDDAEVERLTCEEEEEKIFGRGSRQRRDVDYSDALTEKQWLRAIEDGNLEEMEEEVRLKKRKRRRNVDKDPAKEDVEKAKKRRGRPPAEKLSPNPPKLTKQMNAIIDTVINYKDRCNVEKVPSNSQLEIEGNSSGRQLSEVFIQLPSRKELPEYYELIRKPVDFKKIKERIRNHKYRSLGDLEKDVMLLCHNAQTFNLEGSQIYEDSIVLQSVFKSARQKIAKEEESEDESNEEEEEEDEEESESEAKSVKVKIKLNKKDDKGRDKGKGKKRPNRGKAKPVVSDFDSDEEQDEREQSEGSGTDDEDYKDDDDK
compound,measurement,setting,value
CCn1c(C)c(NC(=O)c2cc(Cl)c(Cl)s2)ccc1=O [Compound 25d],IC50,[1]; [2],> 50 µM
same,IC50,FL-SMARCA4; FL-SMARCA4 IC50,> 50 µM
Cn1cc(C(=O)Nc2cc(F)c(=O)n(CCF)c2)sc1=O [Compound 227],IC50,[1]; [3],> 50 µM
same,IC50,FL-SMARCA4; [4],> 50 µM
O=C(Nc1cc(F)c(=O)n(CC(F)F)c1)c1n[nH]c(Cl)n1 [Compound 38d],IC50,[1]; [2],> 50 µM
same,IC50,FL-SMARCA4; FL-SMARCA4 IC50,> 50 µM
Cc1c(Cl)cccc1C(=O)Nc1c[nH]c(=O)c(C)c1 [Compound 2b],IC50,[1]; [5],> 50 µM
same,IC50,FL-SMARCA4; [6],> 50 µM
CCn1cc(NC(=O)c2cc(Cl)c(Cl)n2C)cc(Cl)c1=O [Compound 133],IC50,[1]; [3],0.343 µM
same,IC50,FL-SMARCA4; [4],2.18 µM
CNc1c(C(=O)Nc2cc(F)c(=O)n(CC(F)F)c2)sc(Cl)c1Cl [Compound 335],IC50,[1]; [3],7.46 µM
same,IC50,FL-SMARCA4; [4],45.1 µM
O=C(Nc1cc(F)c(=O)n(CC(F)F)c1)c1cc(-c2nnco2)c(Cl)s1 [Compound 318],IC50,[1]; [3],2.88 µM
same,IC50,FL-SMARCA4; [4],13.5 µM
CCn1cc(NC(=O)c2ccc(Cl)c(F)c2)ccc1=O [Compound 9b],IC50,[1]; [5],43.7 µM
same,IC50,FL-SMARCA4; [6],> 50 µM
CCn1cc(NC(=O)n2cc3ccccc3n2)ccc1=O [Compound 39a],IC50,[1]; [7],> 50 µM
same,IC50,FL-SMARCA4; [8],> 50 µM
O=C(Nc1ccc(=O)n(CC(F)(F)F)c1)c1nc2cc(F)c(Cl)cc2s1 [Compound 44a],IC50,[1]; [7],42.5 µM
same,IC50,FL-SMARCA4; [8],> 50 µM
CCn1cc(NC(=O)c2cnn(C)c2)ccc1=O [Compound 92],IC50,[1]; [3],> 50 µM
same,IC50,FL-SMARCA4; [4],> 50 µM
CN1C(=O)CCCC1C(=O)Nc1cc(F)c(=O)n(CCF)c1 (stereo not shown) [Compound 48a],IC50,[1]; [7],> 50 µM
same,IC50,FL-SMARCA4; [8],> 50 µM
CCn1cc(NC(=O)c2csc(Cl)n2)ccc1=O [Compound 147],IC50,[1]; [3],17.1 µM
same,IC50,FL-SMARCA4; [4],> 50 µM
N#Cc1cc(C(=O)Nc2ccc(=O)n(CC(F)F)c2)sc1Cl [Compound 320],IC50,[1]; [3],0.151 µM
same,IC50,FL-SMARCA4; [4],0.562 µM
O=C(Nc1cc(F)c(=O)n(CCF)c1)c1cn(CC(F)(F)F)c(=O)s1 [Compound 277],IC50,[1]; [3],> 50 µM
same,IC50,FL-SMARCA4; [4],> 50 µM
CCn1cc(NC(=O)c2cc3c(n2C)CCC3)ccc1=O [Compound 34a],IC50,[1]; [7],> 50 µM
same,IC50,FL-SMARCA4; [8],> 50 µM
Cn1cnc(-c2cc(NC(=O)c3cc(Cl)c(C(F)(F)F)s3)cn(CC(F)F)c2=O)c1 [Compound 91c],IC50,[1]; [9],> 50 µM
same,IC50,FL-SMARCA4; [10],> 50 µM
CCn1cc(NC(=O)C2CCCCC2)ccc1=O [Compound 12b],IC50,[1]; [5],> 50 µM
same,IC50,FL-SMARCA4; [6],> 50 µM
CCn1cc(NC(=O)c2cc(Cl)c(Cl)s2)cc(C(C)C)c1=O [Compound 111],IC50,[1]; [3],> 50 µM
same,IC50,FL-SMARCA4; [4],> 50 µM
Cn1cc(NC(=O)C(C)(C)Oc2ccc(C#N)cc2)cc(Cl)c1=O [Compound 3d],IC50,[1]; [2],> 50 µM
same,IC50,FL-SMARCA4; FL-SMARCA4 IC50,> 50 µM
CCn1cc(NC(=O)c2ccc(F)c(Cl)c2)ccc1=O [Compound 8b],IC50,[1]; [5],> 50 µM
same,IC50,FL-SMARCA4; [6],> 50 µM
CNCCn1cc(NC(=O)c2cc(Cl)c(Cl)n2C)ccc1=O [Compound 71],IC50,[1]; [3],> 50 µM
same,IC50,FL-SMARCA4; [4],> 50 µM
Cn1c(C(=O)Nc2cc(F)c(=O)n(CC(F)(F)F)c2)cnc1C#N [Compound 221],IC50,[1]; [3],1.45 µM
same,IC50,FL-SMARCA4; [4],6.28 µM
CCn1cc(NC(=O)c2cc(Cl)n[nH]2)cc(F)c1=O [Compound 165],IC50,[1]; [3],0.343 µM
same,IC50,FL-SMARCA4; [4],1.07 µM
O=C(Nc1cc(-c2cn[nH]c2)c(=O)n(CC(F)F)c1)c1sc(C(F)(F)F)cc1Cl [Compound 20c],IC50,[1]; [9],> 50 µM
same,IC50,FL-SMARCA4; [10],> 50 µM
O=C(Nc1cc(F)c(=O)n(CC(F)F)c1)c1cc(C#Cc2ccncc2)c(F)s1 [Compound 106c],IC50,[1]; [9],0.028 µM
same,IC50,FL-SMARCA4; [10],0.0533 µM
O=C(Nc1cc(F)c(=O)n(CCF)c1)c1ncccn1 [Compound 55a],IC50,[1]; [7],> 50 µM
same,IC50,FL-SMARCA4; [8],> 50 µM
CN1CCN(C(=O)Nc2cc(F)c(=O)n(CCF)c2)CC1=O [Compound 54a],IC50,[1]; [7],> 50 µM
same,IC50,FL-SMARCA4; [8],> 50 µM
CCn1cc(NC(=O)c2ccn(C)c2Cl)ccc1=O [Compound 115],IC50,[1]; [3],> 50 µM
same,IC50,FL-SMARCA4; [4],16.7 µM
CCn1cc(NC(=O)[C@H]2CCC(=O)N(C)[C@@H]2c2ccncc2)ccc1=O [Compound 5a],IC50,[1]; [7],> 50 µM
same,IC50,FL-SMARCA4; [8],> 50 µM
O=C(Nc1cc(F)c(=O)n(CCF)c1)c1cc(C(F)(F)F)no1 [Compound 264],IC50,[1]; [3],6.23 µM
same,IC50,FL-SMARCA4; [4],38.5 µM
O=C(Nc1cc(F)c(=O)n(CC(F)F)c1)c1cc(C2COC2)cs1 [Compound 36c],IC50,[1]; [9],> 50 µM
same,IC50,FL-SMARCA4; [10],> 50 µM

# Source: US20220356174A1, “PYRIDIN-2-ONE COMPOUNDS USEFUL AS SMARCA2 ANTAGONISTS” (Epizyme, Inc., priority 2018, published 2022)
